The test system of the series is Caco-2 monolayer A->B permeability, LC-MS/MS, 90 min. Kind of series: Inhibitors of Human alpha-Glucosidase: Caco-2 Cell Permeability Profiling. To be noted: active compounds read high. The source says:
Alpha-glucosidase is responsible for the hydrolysis of terminal, non-reducing 1,4-linked alpha-D-glucose residues, which releases alpha-D-glucose. It is a lysosomal hydrolase that is required for the degradation of a small percentage (1-3%) of cellular glycogen in humans. Deficiency of this enzyme results in glycogen-storage disease type II (GSDII), also referred to as Pompe disease, an autosomal recessive disorder. Structurally normal glycogen is accumulated in the lysosomes and cytoplasm in affected patients, primarily in muscle tissues. Excessive glycogen storage within lysosomes may interrupt normal functioning of other organelles and leads to cellular injury. In turn, this leads to enlargement and dysfunction of the entire organ involved (eg: cardiomyopathy and muscle weakness). This bioassays provides profiling data on Caco-2 cell permeability of leads compounds developed for the alpha-Glucosidase project. This in vitro model is often predictive of in vivo absorption of the compound across the intestinal lining by using a Caco2-cell line and measuring the compound's rate of transport […]. NIH Chemical Genomics Center [NCGC] NIH Molecular Libraries Probe Production Centers Network [MLPCN] […]
1. […] The T0, LY and T90, LY plates are read by FlexStation 3 at excitation of 485 nm and emission of 535 nm to determine LY permeability. […]
(Passage across Caco-2 layers is used to estimate intestinal permeability.)

Regarding `CC(=O)c1ccc(N2CCN(S(=O)(=O)c3ccc4c(c3)CC(=O)N4)CC2)cc1`, the Papp A->B was 21.3 10^-6 cm/s.

The values are drawn from PubChem BioAssay AID504686 (National Center for Advancing Translational Sciences (NCATS), 2011).
